Reference: PubChem BioAssay (NCI)
Where “and” joins values, the source holds several entries; their conditions need not be identical. Equal values may be shown once.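 Each compound was tested at five concentrations against cells in 96-well plates for 48 hours. Abbreviation: GI50, concentration required for 50% inhibition of growth. At the TGI there is no net growth.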

Legend:
Assay in all cases: NCI anticancer screen, dose series, 48 h
IGROV1 ovarian = tested on: IGROV1 ovarian
HOP-62 NSCLC = tested on: HOP-62 NSCLC
EKVX NSCLC = tested on: EKVX NSCLC
RPMI-8226 leukemia = tested on: RPMI-8226 leukemia
K-562 leukemia = tested on: K-562 leukemia
MALME-3M melanoma = tested on: MALME-3M melanoma
NCI-H522 lung = tested on: NCI-H522 lung
BT-549 breast = tested on: BT-549 breast
NCI/ADR-RES ovarian = tested on: NCI/ADR-RES ovarian
PC-3 prostate = tested on: PC-3 prostate

Question: With `N/N=C1\C(=O)N(c2ccc(Cl)c(Cl)c2)C(=O)C1C(=O)Nc1ccc(Cl)c(Cl)c1` (stereo not given) as the compound, how does the TGI (IGROV1 ovarian) read?
Answer: > 100 µM

Question: And the TGI (HOP-62 NSCLC)?
Answer: > 100 µM

Question: And the TGI (EKVX NSCLC)?
Answer: > 100 µM

Question: What about the TGI (RPMI-8226 leukemia) of the same compound?
Answer: > 100 µM

Question: What about the TGI (K-562 leukemia) of the same compound?
Answer: > 100 µM

Question: What about the TGI (MALME-3M melanoma) of the same compound?
Answer: > 100 µM

Question: What about the TGI (NCI-H522 lung) of the same compound?
Answer: > 100 µM

Question: What does the source list for `Cc1c(C(=O)Nc2ccc(Oc3ccnc4cc(OCC(C)(C)O)ccc34)c(F)c2)c(=O)n(-c2ccccc2)n1C`?
Answer: GI50 (HOP-62 NSCLC): 19.4 µM; TGI (HOP-62 NSCLC): > 100 µM; GI50 (K-562 leukemia): 0.393 µM; TGI (K-562 leukemia): 15.3 µM; GI50 (BT-549 breast): 4.53 µM; TGI (BT-549 breast): > 100 µM; GI50 (NCI-H522 lung): 8.43 µM; TGI (NCI-H522 lung): > 100 µM

Question: For `CCOC(=O)C(c1ccsc1)P(=O)(OCC)OCC` (stereo not given), which TGI (HOP-62 NSCLC) is on record?
Answer: 52 µM

Question: And the TGI (EKVX NSCLC)?
Answer: 80.1 µM

Question: What about the TGI (RPMI-8226 leukemia) of the same compound?
Answer: > 100 µM

Question: And the TGI (MALME-3M melanoma)?
Answer: 60.8 µM

Question: And the TGI (NCI-H522 lung)?
Answer: 16.9 µM

Question: `COc1ccc(-c2cc(-c3ccco3)c(C#N)c(=O)n2C2OC(COC(C)=O)C(OC(C)=O)C(OC(C)=O)C2OC(C)=O)cc1` (stereo not given) was tested. Which GI50 (IGROV1 ovarian) did it give?
Answer: > 100 µM and 12.9 µM

Question: What about the TGI (IGROV1 ovarian) of the same compound?
Answer: > 100 µM and 94.4 µM

Question: And the GI50 (HOP-62 NSCLC)?
Answer: > 100 µM and 23 µM

Question: What about the TGI (HOP-62 NSCLC) of the same compound?
Answer: > 100 µM and 79.2 µM

Question: What about the TGI (EKVX NSCLC) of the same compound?
Answer: > 100 µM

Question: And the TGI (RPMI-8226 leukemia)?
Answer: > 100 µM

Question: What about the GI50 (K-562 leukemia) of the same compound?
Answer: 48.1 µM and 8.84 µM

Question: And the TGI (K-562 leukemia)?
Answer: > 100 µM

Question: What about the GI50 (MALME-3M melanoma) of the same compound?
Answer: > 100 µM and 25 µM

Question: And the TGI (MALME-3M melanoma)?
Answer: > 100 µM

Question: And the GI50 (NCI-H522 lung)?
Answer: 42.8 µM and 11 µM

Question: What about the TGI (NCI-H522 lung) of the same compound?
Answer: > 100 µM and 60.4 µM

Question: With `CN(C)c1ccc(-c2nc(N)nc3c2CCCC3)cc1` as the compound, how does the TGI (IGROV1 ovarian) read?
Answer: > 100 µM

Question: And the TGI (HOP-62 NSCLC)?
Answer: > 100 µM

Question: What about the TGI (EKVX NSCLC) of the same compound?
Answer: 98.6 µM

Question: What about the TGI (RPMI-8226 leukemia) of the same compound?
Answer: > 100 µM

Question: What about the TGI (K-562 leukemia) of the same compound?
Answer: > 100 µM

Question: What about the TGI (MALME-3M melanoma) of the same compound?
Answer: > 100 µM

Question: And the TGI (NCI-H522 lung)?
Answer: 98.1 µM

Question: What does the source list for `Cc1nc2ccccc2c(/C=C/c2ccc(C(F)(F)F)cc2)c1C(=O)/C=C/c1ccccc1`?
Answer: GI50 (IGROV1 ovarian): 1.12 µM; TGI (IGROV1 ovarian): 3 µM; GI50 (HOP-62 NSCLC): 1.64 µM; TGI (HOP-62 NSCLC): 3.16 µM; GI50 (EKVX NSCLC): 1.61 µM; TGI (EKVX NSCLC): 2.99 µM; GI50 (RPMI-8226 leukemia): 0.999 µM; TGI (RPMI-8226 leukemia): 4.64 µM; GI50 (MALME-3M melanoma): 1.6 µM; TGI (MALME-3M melanoma): 3.02 µM; GI50 (NCI-H522 lung): 1.33 µM; TGI (NCI-H522 lung): 3.07 µM; GI50 (NCI/ADR-RES ovarian): 1.97 µM; TGI (NCI/ADR-RES ovarian): 4.76 µM; GI50 (PC-3 prostate): 1.34 µM; TGI (PC-3 prostate): 3.17 µM

Question: Which results are given for `CN1C=C(C(N)=O)Cc2ccsc21`?
Answer: TGI (IGROV1 ovarian): > 100 µM; TGI (HOP-62 NSCLC): > 100 µM; TGI (EKVX NSCLC): > 100 µM; TGI (RPMI-8226 leukemia): > 100 µM; TGI (K-562 leukemia): > 100 µM; TGI (MALME-3M melanoma): > 100 µM; TGI (NCI-H522 lung): > 100 µM

Question: For `Cc1ccc(C)c(NC(=O)C(=O)C(C2C(C)CC(=O)C2CC(=O)O)[N+](=O)[O-])c1` (stereo not given), which TGI (IGROV1 ovarian) is on record?
Answer: > 100 µM

Question: What about the TGI (HOP-62 NSCLC) of the same compound?
Answer: > 100 µM

Question: What about the TGI (EKVX NSCLC) of the same compound?
Answer: > 100 µM

Question: What about the TGI (RPMI-8226 leukemia) of the same compound?
Answer: > 100 µM

Question: And the TGI (K-562 leukemia)?
Answer: > 100 µM

Question: And the TGI (MALME-3M melanoma)?
Answer: > 100 µM

Question: What does the source list for `CCCCCCCCCCCCNC(=S)OCCCC`?
Answer: TGI (IGROV1 ovarian): > 100 µM; TGI (HOP-62 NSCLC): > 100 µM; TGI (EKVX NSCLC): > 100 µM; TGI (RPMI-8226 leukemia): 51 µM; TGI (K-562 leukemia): > 100 µM; TGI (MALME-3M melanoma): > 100 µM; TGI (NCI-H522 lung): > 100 µM

Question: Which GI50 (IGROV1 ovarian) does the source give for `O=C(/C=C/c1cccc(Cl)c1)c1ccccc1` here?
Answer: 2.06 µM

Question: What about the TGI (IGROV1 ovarian) of the same compound?
Answer: 6.41 µM

Question: And the GI50 (HOP-62 NSCLC)?
Answer: 15.7 µM

Question: What about the TGI (HOP-62 NSCLC) of the same compound?
Answer: 29.9 µM

Question: What about the GI50 (EKVX NSCLC) of the same compound?
Answer: 14.8 µM

Question: What about the TGI (EKVX NSCLC) of the same compound?
Answer: 29.3 µM

Question: What about the GI50 (RPMI-8226 leukemia) of the same compound?
Answer: 3.09 µM

Question: And the TGI (RPMI-8226 leukemia)?
Answer: 9.04 µM

Question: And the GI50 (K-562 leukemia)?
Answer: 2.86 µM

Question: And the TGI (K-562 leukemia)?
Answer: 18.9 µM

Question: And the GI50 (MALME-3M melanoma)?
Answer: 14.4 µM

Question: And the TGI (MALME-3M melanoma)?
Answer: 33.7 µM

Question: And the GI50 (NCI/ADR-RES ovarian)?
Answer: 16.3 µM

Question: And the TGI (NCI/ADR-RES ovarian)?
Answer: 49.8 µM

Question: And the GI50 (PC-3 prostate)?
Answer: 4.13 µM

Question: And the TGI (PC-3 prostate)?
Answer: 22.3 µM

Question: Which TGI (IGROV1 ovarian) does the source give for `O=C1/C(=C/c2ccccc2)CN(C(=O)/C=C/c2ccccc2)C/C1=C\c1ccccc1` here?
Answer: 22.2 µM

Question: And the TGI (HOP-62 NSCLC)?
Answer: 48.9 µM

Question: And the TGI (EKVX NSCLC)?
Answer: 50.1 µM

Question: And the TGI (RPMI-8226 leukemia)?
Answer: 10.8 µM

Question: What about the TGI (K-562 leukemia) of the same compound?
Answer: > 43.3 µM

Question: And the TGI (MALME-3M melanoma)?
Answer: 34.1 µM

Question: What about the TGI (BT-549 breast) of the same compound?
Answer: 4.7 µM

Question: And the TGI (NCI-H522 lung)?
Answer: 27.7 µM

Question: What about the TGI (PC-3 prostate) of the same compound?
Answer: 4.33 µM
